According to US7390836B2, “Small molecules used to increase cell death” (priority 1999, dated 2008):

How the values were obtained:
Assay type in all cases: cell-based
HeLa cells [1] = experiment: Cell death by ATP levels after zVAD-fmk pretreatment; settings: zVAD-fmk 100 μM pretreatment, 48 or 72 hours
Description: The conditions under which cell death occurs in the presence of BH3Is were further evaluated. HeLa cells were pretreated with zVAD-fmk (100 μM) for 1 hour. The purpose of such a treatment was to inhibit the intracellular pathways mediating cell death by apoptosis. Each of the chemical compounds BH3I-1, BH3I-1′, or BH3I-2 was then added to the media of the cells of three separate samples. After 48 or 72 hours of exposure of the cells to zVAD-fmk and the chemical compound, the level of cell death was measured for each sample, by measuring cellular ATP levels.

Jurkat cells [2] = experiment: Caspase activation with fluorogenic substrates; settings: for caspase-3-like activity (DEVD.amc) / caspase-9-like activity (LEHD.amc): BH3I-1 100 μM, BH3I-2 50 μM; for time of maximum activation of both caspases: after addition of the BH3I
Description: (§1) FIG. 6F is a graph showing the time course of caspase activation in Jurkat cells, as assayed using a QuantiPak kit (Biomol). The cells were treated with 100 μM of BH3I-1 (triangles) or 50 μM of BH3I-2 (squares) for 2, 6, 12, or 24 hr. A fluorescence based assay of caspase-3 (Ac-DEVD-AMC) activity was then performed. The numbers represent relative AMC fluorescence in each sample compared to the value obtained with untreated Jurkat cells incubated for 24 hours, set at 1. Standard deviation values are also shown.
as §1, with “6G” for “6F”, “12” for “12,”, “caspase-9 (Ac-LEHD-AMC)” for “caspase-3 (Ac-DEVD-AMC)”
FIG. 6H is a graph showing the comparison of caspase-9 (Ac-LEHD-AMC) (open bars) and caspase-8 (Ac-IETD-AMC) (closed bars) activation 12 and 24 hr after treatment of Jurkat cells with BH3Is.
To evaluate the activation of caspases by BH3Is, the activation of caspases in the presence of these compounds was measured using the preferred caspase-3 and caspase-9 fluorogenic substrates DEVD.amc and LEHD.amc. […] Activation of both caspases followed an essentially identical time course and reached a maximum 12 hours after addition of the BH3I. If BH3Is induce apoptosis through a mitochondrial pathway, caspase-9 should be activated before caspase-8, since the latter is a mediator of the death receptor pathway at the plasma membrane (Cryns et al., Genes Dev. 12:1551-70, 1998 [published erratum appears in Genes Dev. 13:371, 1999]). Therefore, the levels of caspase-9 and caspase-8 activity were compared by measuring LEHD.amc/IETD.amc cleavage activities.

Jurkat cells [3] = experiment: Cell death by cellular ATP levels; settings: 48 hours
Description: (§2) HeLa cells, U-937 cells, or Jurkat cells, each of which endogenously express both Bak and Bcl-xL, were contacted with each of the BH3I chemical compounds identified above, by adding the compound to the cell culture media. Forty-eight hours after the cells received the chemical compound the cell culture sample was evaluated for the level of cell death that had occurred in response to the chemical compound. The level of cell death was determined by measuring cellular ATP levels, wherein a decrease in cellular ATP levels indicated an increase in cell death. In each cell line, cell death was increased in the sample that received one of the above-identified compounds.

HeLa cells [4] = experiment: Cell death by cellular ATP levels; settings: 48 hours
Description: as §2

U-937 cells = experiment: Cell death by cellular ATP levels; settings: 48 hours
Description: as §2

Row | SMILES | cellular ATP levels (HeLa cells [1]) | caspase-3-like activity (DEVD.amc) (Jurkat cells [2]) | caspase-9-like activity (LEHD.amc) (Jurkat cells [2]) | time of maximum activation of both caspases (Jurkat cells [2]) | GI50 (Jurkat cells [3]) | GI50 (HeLa cells [4]) | GI50 (U-937 cells)
1 | CC(C)C(C(=O)O)N1C(=O)C(=Cc2ccc(Br)cc2)SC1=S (stereo in doubt) [BH3I-1] | cellular ATP levels decreased | increase | increase | 12 h |  |  | 
2 | O=C(Nc1cc(S(=O)(=O)c2ccc(Cl)cc2)ccc1Cl)c1cc(Cl)cc(Br)c1O [BH3I-2] | cellular ATP levels decreased | increase | increase | 12 h | 10 to 15 µM | 10 to 15 µM | 10 to 15 µM
